# Laboratory results as given in publication PMC5257293 (Journal of medicinal chemistry, 2016).
# Tests used:
# Sa(H30N, F98Y) DHFR = Sa(H30N, F98Y) DHFR (Staphylococcus aureus, UniProt P0A017, F99Y/H31N); experiment: DHFR enzyme inhibition; type: biochemical; settings: Ki ratio mutant vs wild-type
# S. aureus 43300 = settings: cited from earlier work
# Sa43300(F98Y) = experiment: Mutant selection / mutational frequency at 6x MIC; type: cell-based, Staphylococcus aureus; settings: progenitor Sa(F98Y), selection at 6x MIC
# Sa43300(H149R) = experiment: Mutant selection / mutational frequency at 6x MIC; type: cell-based, Staphylococcus aureus; settings: progenitor Sa(H149R), selection at 6x MIC
# Sa43300 = experiment: Mutant selection / mutational frequency at 6x MIC; type: cell-based, Staphylococcus aureus; settings: progenitor Sa43300, selection at 6x MIC
Compound,"loss in affinity for Sa (F98Y, H30N) double mutant enzyme relative to wild-type (Sa(H30N, F98Y) DHFR) [fold]",mutation frequencies (mutants F98Y and F98I in the DHFR gene) (S. aureus 43300),"Mutational Frequency, DHFR mutation F98Y/H30N (Sa43300(F98Y))","Mutational Frequency, DHFR mutation F98Y/H149R (Sa43300(H149R))","Mutational Frequency, DHFR mutation F98Y (Sa43300)","Mutational Frequency, DHFR mutation H30N (Sa43300)","Mutational Frequency, DHFR mutation H149R (Sa43300)"
CCc1nc(N)nc(N)c1C#CC(C)c1cc2c(c(-c3ccncc3)c1)OCO2 (centres unmarked) [Compound 2],180 to 300,–,–,–,–,–,–
CCc1nc(N)nc(N)c1C#CC(C)c1cc(OC)cc(-c2ccncc2)c1 (centres unmarked) [Compound 1],–,10^−10,8.2 x 10^−12,1.23x10^−11,3.11 x 10^−11,4.67 x 10^−11,1.65 x 10^−10
CCc1nc(N)nc(N)c1C#C[C@H](C)c1cc2c(c(-c3ccncc3)c1)OCO2 [Compound 7],180 to 300,–,–,–,–,–,–
